Data: the OPERA property sets (Mansouri et al. 2018)
In brackets after ≈: the same amount, converted by molar mass.

Settings: 20 °C

Question: Which solubility does the source give for `Nc1nc2c(O)cccc2s1` here?
Answer: Its solubility is 12 mM (≈ 2000 µg/mL).

Question: For `CCOC(=O)C(C)=CC(=O)[O-]`, which solubility is on record?
Answer: The solubility was 94.2 mM.

Question: For `COc1ncnc2nccnc12`, which solubility is on record?
Answer: The solubility was 77.1 mM (≈ 12500 µg/mL).

Question: Which solubility does the source give for `Oc1cncc2cccnc12` here?
Answer: The solubility was 22 mM (≈ 3220 µg/mL).

Question: For `CC(=O)N[C@@H](CSc1ccc(Cl)c(Cl)c1)C(=O)O`, which solubility is on record?
Answer: Its solubility is 1.3 mM (≈ 400 µg/mL).

Question: For `Cn1c(=O)ncc2nccnc21`, which solubility is on record?
Answer: The solubility was 42.5 mM (≈ 6900 µg/mL).

Question: Which solubility does the source give for `CC(C)=NNC(N)=O` here?
Answer: The solubility was 540 mM (≈ 62200 µg/mL).

Same assay, conditions: 21 °C

Question: For `NC(N)=NCCS(=O)(=O)O`, which solubility is on record?
Answer: The solubility was 233 mM (≈ 39000 µg/mL).

Question: With `COc1ccc(NC(N)=O)cc1` as the compound, how does the solubility read?
Answer: The solubility was 25.6 mM (≈ 4250 µg/mL).

Same assay, conditions: 22 °C

Question: Which solubility does the source give for `O=C1CCCCCCCN1` here?
Answer: Its solubility is 4290 mM (≈ 606000 µg/mL).

Question: Which solubility does the source give for `CC(=O)OCCS` here?
Answer: The solubility was 31.6 mM (≈ 3800 µg/mL).

Question: For `C[C@](N)(C(=O)O)c1ccccc1`, which solubility is on record?
Answer: Its solubility is 291 mM (≈ 48000 µg/mL).

Question: For `O=C1CCCCCCCCCCCCCCCCCN1`, which solubility is on record?
Answer: The solubility was 1.42 mM (≈ 400 µg/mL).

Same assay, conditions: 25 °C

Question: Which solubility does the source give for `CCCCOP(=O)(OC)OCCCC` here?
Answer: Its solubility is 31.7 mM (≈ 7100 µg/mL).

Question: With `O=C(O)CC1NC(=O)NC1=O` (centres undefined) as the compound, how does the solubility read?
Answer: The solubility was 70.5 mM (≈ 11100 µg/mL).

Question: Which solubility does the source give for `CCCCCCOC(=O)CCOCC` here?
Answer: The solubility was 1.48 mM (≈ 300 µg/mL).

Question: For `CNC(CC(C)C)C(=O)O` (stereo in doubt), which solubility is on record?
Answer: The solubility was 306 mM (≈ 44400 µg/mL).

Question: Which solubility does the source give for `CC(CC(C)C(=O)O)C(=O)O` (centres undefined) here?
Answer: Its solubility is 350 mM (≈ 56000 µg/mL).

Question: With `Cc1nc2c(c(=O)n(C)c(=O)n2C)n1C` as the compound, how does the solubility read?
Answer: The solubility was 35.5 mM (≈ 7400 µg/mL).

Question: For `Cn1c(=O)c2[nH]c(Cl)nc2n(C)c1=O`, which solubility is on record?
Answer: Its solubility is 31.1 mM (≈ 6670 µg/mL).

Question: With `C[C@@H](N)[C@@H](O)c1ccccc1` as the compound, how does the solubility read?
Answer: Its solubility is 132 mM (≈ 20000 µg/mL).

Question: Which solubility does the source give for `COC(=O)OC(C)C(=O)OC` (centres undefined) here?
Answer: The solubility was 251 mM (≈ 40700 µg/mL).

Question: With `Cc1cc(Cl)cc(C)c1O` as the compound, how does the solubility read?
Answer: Its solubility is 21.1 mM (≈ 3300 µg/mL).

Question: Which solubility does the source give for `NNC(=O)CC(=O)NN` here?
Answer: The solubility was 757 mM (≈ 100000 µg/mL).

Question: With `CC(=O)N[C@@H](C(=O)O)C(C)C` (racemic) as the compound, how does the solubility read?
Answer: The solubility was 354 mM (≈ 56400 µg/mL).

Question: For `Oc1ccc(C2CCCCC2)c(O)c1`, which solubility is on record?
Answer: Its solubility is 2.65 mM (≈ 510 µg/mL).

Question: With `O=C(O)CCCCCCNS(=O)(=O)c1ccccc1` as the compound, how does the solubility read?
Answer: The solubility was 8.97 mM (≈ 2560 µg/mL).

Question: With `CCCCCCCCCCCCCCCCNC(=O)C(C)O` (centres undefined) as the compound, how does the solubility read?
Answer: Its solubility is 0.223 mM (≈ 70 µg/mL).

Question: With `CCOC(=O)CCc1ccccc1` as the compound, how does the solubility read?
Answer: Its solubility is 1.23 mM (≈ 220 µg/mL).

Question: Which solubility does the source give for `O=C(O)c1c(O)ccc2ccccc12` here?
Answer: Its solubility is 0.744 mM (≈ 140 µg/mL).

Question: Which solubility does the source give for `Cc1cc(C)nc(N)n1` here?
Answer: The solubility was 325 mM (≈ 40000 µg/mL).

Question: With `O=C(O)c1ccc(O)cc1O` as the compound, how does the solubility read?
Answer: Its solubility is 37.5 mM (≈ 5780 µg/mL).

Question: With `Cc1nnc(N)nc1C` as the compound, how does the solubility read?
Answer: Its solubility is 80.6 mM (≈ 10000 µg/mL).

Question: For `CCC1OC(=O)c2cc([N+](=O)[O-])ccc21` (centres undefined), which solubility is on record?
Answer: The solubility was 2.82 mM (≈ 584 µg/mL).

Question: For `Cc1ccccc1OCC(=O)O`, which solubility is on record?
Answer: Its solubility is 3.61 mM (≈ 600 µg/mL).

Question: For `O=C(O)c1ccc(NC(=O)c2cccnc2)cc1`, which solubility is on record?
Answer: Its solubility is 0.826 mM (≈ 200 µg/mL).

Question: With `CCCC[C@H](NC(C)=O)C(=O)O` (racemic) as the compound, how does the solubility read?
Answer: The solubility was 307 mM (≈ 53100 µg/mL).

Question: Which solubility does the source give for `CCCCS(=O)(=O)C(S(=O)(=O)CCCC)S(=O)(=O)CCCC` here?
Answer: Its solubility is 1.06 mM (≈ 400 µg/mL).

Question: For `O=C(O)c1ccc([N+](=O)[O-])c(C(=O)O)c1`, which solubility is on record?
Answer: The solubility was 45.8 mM (≈ 9670 µg/mL).

Question: With `CCCCOCCC(=O)OC` as the compound, how does the solubility read?
Answer: Its solubility is 51.2 mM (≈ 8200 µg/mL).

Question: For `CCCCC(=O)NCCNC(=O)CCCC`, which solubility is on record?
Answer: The solubility was 15.3 mM (≈ 3500 µg/mL).

Question: With `CC(C)C1CCC(=NO)C(=NO)C1` (centres undefined) as the compound, how does the solubility read?
Answer: Its solubility is 4.07 mM (≈ 750 µg/mL).

Question: Which solubility does the source give for `CC(CCC(=O)O)NC(=O)c1ccccc1` (centres undefined) here?
Answer: Its solubility is 20.3 mM (≈ 4500 µg/mL).

Question: With `Cc1cccc(CO)c1` as the compound, how does the solubility read?
Answer: The solubility was 409 mM (≈ 50000 µg/mL).

Question: Which solubility does the source give for `O=C(O)COCC(=O)O` here?
Answer: Its solubility is 3110 mM (≈ 417000 µg/mL).

Question: Which solubility does the source give for `Nc1cc(S(=O)(=O)O)ccc1C(=O)O` here?
Answer: Its solubility is 48.3 mM (≈ 10500 µg/mL).

Question: For `CCOC(=O)c1cccnc1`, which solubility is on record?
Answer: The solubility was 370 mM (≈ 56000 µg/mL).

Question: With `CCCCOC(=O)c1cccnc1` as the compound, how does the solubility read?
Answer: Its solubility is 14.6 mM (≈ 2610 µg/mL).

Question: Which solubility does the source give for `COCCCl` here?
Answer: The solubility was 846 mM (≈ 80000 µg/mL).

Question: For `CCOc1ccc(C(=O)O)c2ccccc12`, which solubility is on record?
Answer: Its solubility is 0.0772 mM (≈ 16.7 µg/mL).

Question: Which solubility does the source give for `CCCCP(=O)(CCCC)OCC` here?
Answer: The solubility was 63 mM (≈ 13000 µg/mL).

Question: For `Cc1cc(Cl)c(O)c(Cl)c1`, which solubility is on record?
Answer: The solubility was 38 mM (≈ 6730 µg/mL).

Question: With `CCCCCCCCCCNC(=O)c1cccnc1` as the compound, how does the solubility read?
Answer: The solubility was 0.838 mM (≈ 220 µg/mL).

Question: For `Cc1nc(Br)[nH]c1[N+](=O)[O-]`, which solubility is on record?
Answer: Its solubility is 16.2 mM (≈ 3330 µg/mL).

Question: With `CCCCCCCCCCOC(=O)c1cccnc1` as the compound, how does the solubility read?
Answer: The solubility was 0.646 mM (≈ 170 µg/mL).

Question: With `c1cn[nH]c1` as the compound, how does the solubility read?
Answer: The solubility was 285 mM (≈ 19400 µg/mL).

Question: Which solubility does the source give for `Nc1ccc2c(c1)C(=O)OC2` here?
Answer: Its solubility is 9.09 mM (≈ 1360 µg/mL).

Question: With `O=C(O)c1ccc(F)c([N+](=O)[O-])c1` as the compound, how does the solubility read?
Answer: The solubility was 26.2 mM (≈ 4860 µg/mL).

Question: With `CN1c2ccccc2C(O)(c2ccccc2)c2ccccc21` as the compound, how does the solubility read?
Answer: The solubility was 0.125 mM (≈ 35.9 µg/mL).

Question: With `CCCCCCCCOC(=O)c1cccnc1` as the compound, how does the solubility read?
Answer: Its solubility is 0.807 mM (≈ 190 µg/mL).

Question: Which solubility does the source give for `Cc1ccc(/N=N/c2cc(C)ccc2N)cc1` here?
Answer: Its solubility is 0.125 mM (≈ 28.2 µg/mL).

Question: For `CC(C)(CCC(C)(C)CC(=O)O)CC(=O)O`, which solubility is on record?
Answer: Its solubility is 0.738 mM (≈ 170 µg/mL).

Question: With `CCCCCCC(C(=O)O)C(=O)O` as the compound, how does the solubility read?
Answer: The solubility was 22 mM (≈ 4150 µg/mL).

Question: For `CNC(=O)N(C)C(=O)CC#N`, which solubility is on record?
Answer: The solubility was 1480 mM (≈ 230000 µg/mL).

Question: Which solubility does the source give for `Nc1cc([N+](=O)[O-])ccc1Br` here?
Answer: The solubility was 0.277 mM (≈ 60 µg/mL).

Question: Which solubility does the source give for `CCNCNC(=O)c1ccccc1` here?
Answer: The solubility was 842 mM (≈ 150000 µg/mL).

Question: With `O=c1ccc(Br)ccc1O` as the compound, how does the solubility read?
Answer: Its solubility is 0.274 mM (≈ 55 µg/mL).

Question: Which solubility does the source give for `C=CC1=C(C)C(=Cc2[nH]c(Cc3[nH]c(C=C4NC(=O)C(C)=C4C=C)c(C)c3CCC(=O)O)c(CCC(=O)O)c2C)NC1=O` here?
Answer: Its solubility is 0.0154 mM (≈ 9 µg/mL).

Question: For `CCC(CC)(CC(=O)O)C(=O)O`, which solubility is on record?
Answer: The solubility was 160 mM (≈ 27900 µg/mL).

Question: Which solubility does the source give for `COc1c(O)ccc(C=O)c1C` here?
Answer: The solubility was 42.1 mM (≈ 7000 µg/mL).

Question: With `CCCCCCCC(C(=O)O)C(=O)O` as the compound, how does the solubility read?
Answer: The solubility was 9.1 mM (≈ 1840 µg/mL).

Question: With `CCCCCCNC(=O)c1cccnc1` as the compound, how does the solubility read?
Answer: Its solubility is 3.01 mM (≈ 620 µg/mL).

Question: With `O=C(Nc1ccccn1)c1cccnc1` as the compound, how does the solubility read?
Answer: Its solubility is 1.05 mM (≈ 210 µg/mL).

Same assay, conditions: 26 °C

Question: With `N#CCCNC(Cc1ccccc1)C(=O)O` (racemic) as the compound, how does the solubility read?
Answer: Its solubility is 32.1 mM (≈ 7000 µg/mL).

Question: For `O=C(S)CCCCCCCCC(=O)S`, which solubility is on record?
Answer: The solubility was 0.853 mM (≈ 200 µg/mL).

Question: Which solubility does the source give for `Cc1ccc(C)c(C)n1` here?
Answer: The solubility was 257 mM (≈ 31200 µg/mL).

Same assay, conditions: 28 °C

Question: For `NC(=O)NCO`, which solubility is on record?
Answer: Its solubility is 451 mM (≈ 40600 µg/mL).

Same assay, conditions: 30 °C

Question: For `CN(C)C(=O)c1cccc(C(=O)N(C)C)c1`, which solubility is on record?
Answer: Its solubility is 3070 mM (≈ 676000 µg/mL).

Question: For `CC(=O)c1cccs1`, which solubility is on record?
Answer: Its solubility is 111 mM (≈ 14000 µg/mL).

Question: With `CCCCCCCCS(=O)(=O)NS(=O)(=O)CCCCCCCC` as the compound, how does the solubility read?
Answer: The solubility was 0.122 mM (≈ 45 µg/mL).

Question: With `CCCCCCCCOC(=O)c1ccc(O)cc1` as the compound, how does the solubility read?
Answer: Its solubility is 0.0599 mM (≈ 15 µg/mL).

Question: Which solubility does the source give for `COC(=O)CNC(=O)c1ccccc1` here?
Answer: Its solubility is 88 mM (≈ 17000 µg/mL).

Question: For `CCCCCOC(=O)c1ccc(O)cc1`, which solubility is on record?
Answer: The solubility was 0.154 mM (≈ 32 µg/mL).

Question: For `O=C(O)Cc1c[nH]c(=O)[nH]c1=O`, which solubility is on record?
Answer: Its solubility is 23.5 mM (≈ 4000 µg/mL).
